Laboratory results: US20240122926A1, “APELIN RECEPTOR MODULATORS FOR TREATING MUSCLE CONDITIONS” (priority 2022, published 2024)

Assays:
Format in all cases: in vivo, mouse
aged (18-month-old) mice [1] = assay: Cardiotoxin (CTX)-induced muscle injury, histology of tibialis (cross-sectional area, centrally nucleated fibers)
Experimental: Impairment of muscle regeneration can contribute to age-related muscle weakness. This is particularly true in aged individuals who engage in physical activity. Exercise-induced muscle hypertrophy is linked to the capacity of muscle stem cells to be activated and promote regeneration.
Mice were i.p injected with buprenorphine (Centravet, 0.1 mg/kg) 30 minutes before injury and the day after. The day of the injury, mice were anesthetized with isoflurane inhalation and hindlimbs were shaved. […]
Mouse muscle samples were dissected and cryopreserved in OCT frozen in liquid nitrogen cooled isopentane. […] Images were captured using a digital camera (Nanozoomer, Hamamatsu) attached to a motorized fluorescence microscope or using Olympus VS120 Virtual Microscopy Slide Scanning System. The area covered by eMHC-positive fibers and degenerated area was determined manually across the entire sections using the VS-ASW FL software measurement tools. The size of myofibers with central nuclei was calculated from laminin/DAPI staining on all fibers of the section and area determination were performed across the entire sections, using an automated image processing algorithm developed internally using the MetaXpress software (Molecular Devices).

aged (18-month-old) mice [2] = assay: Cardiotoxin (CTX)-induced muscle injury, transcript levels, aged mice; conditions: for MyoD transcript level: 3 and 7 days
Experimental: (§1) Mice were i.p injected with buprenorphine (Centravet, 0.1 mg/kg) 30 minutes before injury and the day after. The day of the injury, mice were anesthetized with isoflurane inhalation and hindlimbs were shaved. Then, 10 μM of cardiotoxin (CTX, Latoxan, #L8102) was injected through two injections of 25 μl into the left tibialis muscle and two injections of 50 μl into the left gastrocnemius muscle, using a 22-gauge needle (Hamilton). Mice were euthanized 3 and 7 days after injury by cervical dislocation, muscles (PBS- and CTX-injected) were cut in two parts, one being snap frozen into liquid nitrogen for total RNA extraction and the other part being embedded into OCT, frozen in isopentane cooled with liquid nitrogen for histological analysis.

young (3-month-old) mice = assay: Cardiotoxin (CTX)-induced muscle injury, transcript levels, young mice
Experimental: as §1

[3] = tibialis anterior, 7 days, both BGE-105 dosages

Q: Which results are given for `CSCC[C@H](NC(=O)[C@@H]1CCCN1C(=O)CNC(=O)[C@H](CCCCN)NC(=O)[C@H](Cc1c[nH]cn1)NC(=O)[C@H](CO)NC(=O)[C@H](CC(C)C)NC(=O)[C@H](CCCNC(=N)N)NC(=O)[C@@H]1CCCN1C(=O)[C@H](CCCNC(=N)N)NC(=O)[C@@H]1CCC(=O)N1)C(=O)N1CCC[C@H]1C(=O)N[C@@H](Cc1ccccc1)C(=O)O` [Pyr^1-Apelin-13]?
A: cross-sectional area of the tibialis (aged (18-month-old) mice [1]; 3 and 7 days post cardiotoxin, BA1 (50 mg/kg/d) and BA2 (200 mg/kg/d)): significant increase; amount of centrally nucleated myofibers (CNM) (aged (18-month-old) mice [1]; 18-month-old mice after cardiotoxin, significant at the higher BGE-105 dose (200 mg/kg/day)): significant increase; MyoD transcript level (aged (18-month-old) mice [2]; gastrocnemius, both BGE-105 dosages): significant increase; Myf5 transcript level (aged (18-month-old) mice [2]; gastrocnemius, 3 or 7 days): no significant change; MyoG transcript level (aged (18-month-old) mice [2]; gastrocnemius, 3 or 7 days): no significant change; Pax7 transcript level (aged (18-month-old) mice [2]; gastrocnemius, 3 or 7 days): no significant change; MyHC8 transcript level (aged (18-month-old) mice [2]; gastrocnemius, any time point): does not show a change; MyoD transcript level (aged (18-month-old) mice [2]; tibialis anterior, both BGE-105 dosages): significant increase; Pax7 transcript level (aged (18-month-old) mice [2]; tibialis anterior, 7 days, BGE-105 50 and 200 mg/kg/day P.O., apelin 0.5 mol/kg/day injection): significant increase; MyHC3 transcript level (aged (18-month-old) mice [2]; [3]): significant increase; MyoG transcript level (aged (18-month-old) mice [2]; [3]): significant increase; Myf5 transcript level (young (3-month-old) mice; gastrocnemius, 3 or 7 days): no change; MyoD transcript level (young (3-month-old) mice; gastrocnemius, 3 or 7 days): no change; MyoG transcript level (young (3-month-old) mice; gastrocnemius, 3 or 7 days): no change; Pax7 transcript level (young (3-month-old) mice; gastrocnemius, 3 or 7 days): no change; MyHC8 transcript level (young (3-month-old) mice; gastrocnemius, 3 days, both BGE-105 dosages): non-significant increase; MyHC3 transcript level (young (3-month-old) mice; tibialis, 3 or 7 days): no significant change; MyHC8 transcript level (young (3-month-old) mice; tibialis, 3 or 7 days): no significant change; Myf5 transcript level (young (3-month-old) mice; tibialis, 3 or 7 days): no difference; MyoD transcript level (young (3-month-old) mice; tibialis, 3 or 7 days): no significant increase; MyoG transcript level (young (3-month-old) mice; tibialis, 3 or 7 days): no difference; Pax7 transcript level (young (3-month-old) mice; tibialis, 3 or 7 days): no change
